Data on one molecule can be found in EP4151214A1, “RIMEGEPANT FOR TREATMENT OF HUMAN CORONAVIRUS INFECTION” (priority 2021, dated 2023).

The target in one data set is SARS-CoV-2 nsp15 (Severe acute respiratory syndrome coronavirus 2, UniProt P0DTD1). In words: nsp15 endoribonuclease activity assay (gel-based, 32P-labelled 16-mer RNA). Type of data set: biochemical. How it is done:
(§1) Both RNAs were labelled at their 5' end with [^32P]-γ-ATP and T4 Polynucleotide Kinase (Ambion) in a standard reaction. MicroSpin G-50 columns (Cytiva) were used to remove excess [^32P]-γ-ATP. The synthetic RNAs were resuspended in 10 mM of Tris-HCI pH 8.0 and incubated 10 min at 80°C followed by 45 min at 37°C. • Different concentrations (µM) of rimegepant were incubated with 300 nM of nsp15 or with 40 nM-160 nM of nsp14-nsp10 proteins (7 minutes at room temperature), before initiating the in vitro assay through the addition of the P^32-RNA substrate (50 nM). The activity assays were performed in a final volume of 12 µl containing the activity buffer 50 mM HEPES pH 7.4, 1 mM DTT, 5 mM MgCl2 in case of nsp14-nsp10 complex, and 25 mM HEPES pH 7.4, 50 mM NaCl, 1 mM DTT, 10 mM NaHPO4, 5 mM MnCl2 for nsp15. The reactions were incubated at 37°C, and then aliquots of 4 µl were withdrawn at the time-points indicated in the respective images. […] All the experiments were performed at least in triplicate. • Inhibition profile curves were calculated by quantification of gel-based RNase assays. […] The inhibitory effect of rimegepant on SARS-CoV-2 multiplication in Vero E6 cells was evaluated. […] In addition, the viability of cells in culture was assessed by measuring intracellular ATP levels, using a luminescent assay as described above (CellTiter-Glo® Luminescent Cell Viability Assay). […]

The conditions of data set [1]: cited from earlier work.
The conditions of data set [2]: cited from earlier work. This is another data set of the same source.
Data set [3] deals with nsp14-nsp10 protein complex (Severe acute respiratory syndrome coronavirus 2, UniProt P0DTD1). In words: nsp14 ExoN activity assay with nsp14-nsp10 complex (gel-based, 32P-labelled H4 RNA). The format is biochemical, SARS-CoV-2. How it is done: as §1
Another data set has as its target T1, CGRP receptor (Homo sapiens, UniProt O60894+Q16602).
T1 construct: host or cells: human patients (clinical use)
Particulars: orally disintegrating tablet; cited from earlier work.

Another data set has as its system SARS-CoV-2. Type of data set: cell-based.

Molecules are shown by their SMILES.

As a reminder, the IC50 is the concentration that inhibits the measured activity by half. A lower IC50 goes with higher potency. By bioavailability is commonly meant the share of a dose that reaches the circulation, judged against a reference dose that is usually intravenous.

T1 sequence (Q16602 23-461): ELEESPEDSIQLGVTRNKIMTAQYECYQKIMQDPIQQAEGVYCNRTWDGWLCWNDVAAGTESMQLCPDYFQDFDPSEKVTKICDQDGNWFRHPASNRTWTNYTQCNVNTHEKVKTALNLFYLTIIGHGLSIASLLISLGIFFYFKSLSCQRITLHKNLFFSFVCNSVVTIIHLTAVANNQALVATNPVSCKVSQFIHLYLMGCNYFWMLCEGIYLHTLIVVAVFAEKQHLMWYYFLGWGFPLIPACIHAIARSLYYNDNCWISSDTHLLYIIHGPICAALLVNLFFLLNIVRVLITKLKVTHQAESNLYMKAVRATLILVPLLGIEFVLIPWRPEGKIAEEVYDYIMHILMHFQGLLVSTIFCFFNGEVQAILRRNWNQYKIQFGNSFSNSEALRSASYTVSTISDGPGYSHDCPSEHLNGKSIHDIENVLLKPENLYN
T1 sequence (O60894 27-148): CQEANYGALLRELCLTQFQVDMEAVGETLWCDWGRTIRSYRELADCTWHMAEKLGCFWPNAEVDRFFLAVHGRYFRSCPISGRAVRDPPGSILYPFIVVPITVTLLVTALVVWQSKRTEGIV

`N[C@@H]1c2cccnc2[C@H](OC(=O)N2CCC(n3c(=O)[nH]c4ncccc43)CC2)CC[C@H]1c1cccc(F)c1F` [rimegepant, Rimegepant]: the half-maximal inhibitory concentration (IC50) on SARS-CoV-2 nsp15 was determined as 98.95 ± 0.28 µM. For the same molecule, the “maximum tolerated dose (MTD)” value in data set [1] (Phase I clinical trials) was “not found”. For the same molecule, the “well tolerated multiple doses” value in data set [1] (for 14 days, without significant adverse events (Tong et al 2013)) is on record as “up to 600 mg”. For the same molecule, in data set [1] (healthy subjects, compared to placebo (Tong et al 2013)), the “well tolerated single doses” value is recorded as “up to 1500 mg”. In data set [2] (Phase I, without finding a maximum tolerated dose), the “plasma concentrations achieved relative to those at 75 mg” value is 50 times. Further, in data set [2] (in vivo), the “administered dose eliminated unchanged” value is given as “Approximately 77%”; the bioavailability is given as 64%; the elimination half-life result is “approximately 11 h”; the “major metabolites (i.e., > 10%) in plasma” value was “no major metabolites”. In data set [2] (near the low predicted therapeutic dose of 75 mg, Phase I), the “Cmax (maximum serum concentrations)” value is reported as 784 ng/mL. In data set [2] (oral administration of the orally disintegrating tablet), the “Tmax (maximum plasma concentrations achieved at)” value was 1.5 h. This molecule returned a half-inhibitory concentration (IC50) in data set [3] of 1700 µM. The “duration of effect after a single dose” value on CGRP receptor is listed as “up to 48 h”. The “duration of antiviral effect” value in the data set with SARS-CoV-2 (175 µM of rimegepant) is given as 72 h. For the same molecule, the “rescue of Vero E6 cells infected with SARS-CoV-2” value in the data set on SARS-CoV-2 (175 µM, ATP levels) was “totally rescue the cells from the infection”.
